Several values for one entry are separate records, joined by “and”; a condition that tells them apart may be missing. Equal entries are not always repeated.

Seven compounds from paper PMC11868579 (Nature Communications, 2024) can be followed below.

The subject of one assay is c-Myc-activity. Kind of assay: c-Myc-regulated luciferase reporter in SW620 cells. In kind it is cell-based, human. On the set-up: CMV, Average / c-Myc, Average: unit not given here. The conditions noted are these: for c-Myc, Average / CMV, Average: SW620; for c-Myc, Average: c-Myc-regulated firefly luciferase reporter; for CMV, Average: constitutive CMV promoter-regulated renilla luciferase reporter. As for the experimental part:
Luminescence was measured using the Dual-glo luciferase assay (mean ± SEM from 3 biological replicates). b SW620 cells were transfected with a c-Myc-regulated firefly luciferase expression reporter or a constitutive CMV promoter-regulated renilla luciferase reporter. Cells were treated for 24 hr with 1 or 10 µM compound 4 or the […] kinase inhibitor AZD8055 as positive control (mean ± SEM from 3 biological replicates). An ordinary one-way ANOVA with Tukey multiple comparisons test was performed comparing c-Myc-regulated firefly luciferase expression or CMV-regulated Renilla luciferase expression following the different treatments. For c-Myc-regulated firefly luciferase expression, all significant p values […]
were <0.0001. […]
Source data is located in the Supplementary Source Data file

Assay [1] has as its system cap-dependent and cap-independent (IRES) protein synthesis. As to the kind of experiment: Bicistronic protein synthesis reporter in H1299 cells. The conditions noted are these: H1299; 100 μM, 24 hr; normalisation not stated. The class given is cell-based, human. The protocol: H1299 cells were transfected with a biscistronic vector using Lipofectamine 3000 transfection reagent (Fisher Scientific, cat#L3000008) for 24 hr and then treated with compounds for further 24 h. Luminescence was measured after 24 h of compound treatment using the Dual Glo luciferase reporter assays as above.

The target in assay [2] is T1, eIF4E minor variant D127N (N127) (Homo sapiens, UniProt P06730, D127N).
T1 construct: made in house; host or cells: E. coli BL21-CodonPlus (DE3)-RIPL
T1 sequence (P06730 36-217 D127N): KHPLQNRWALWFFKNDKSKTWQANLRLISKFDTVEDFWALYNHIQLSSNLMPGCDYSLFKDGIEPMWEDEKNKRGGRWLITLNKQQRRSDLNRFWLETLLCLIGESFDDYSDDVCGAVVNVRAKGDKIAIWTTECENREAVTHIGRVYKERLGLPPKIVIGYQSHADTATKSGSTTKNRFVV
Kind of assay: Isothermal titration calorimetry, eIF4E minor variant. In kind it is binding. The conditions noted are these: for Kd: ITC; for Kd / LE (ligand efficiency): minor variant D127N. The protocol: ITC experiments were performed on either a MicroCal VP-ITC or a MicroCal Auto-ITC200 at 25 °C in a buffer comprising 50 mM HEPES, 100 mM NaCl, 1 mM TCEP and 5% DMSO at pH 7.5. Typical titrations on the MicroCal VP-ITC were performed using 17 × 16.4 µL injections with a 250 s spacing between each injection and with a stirring speed of 307 rpm. Typical titrations on the MicroCal Auto-ITC200 were performed using 12 × 3 µL injections with a 150 s spacing between each injection and with a stirring speed of 750 rpm. ITC data analyses were performed with Origin 7.0 software using the “One Set of Sites” model.

Assay [3] has as its system H1299 eIF4E-dTAG clones proteome. Kind of assay: Global proteome profiling (DIA LC-MS/MS). The class given is cell-based, human. The following applies: 500 nM, 72 hr. The protocol:
Cells (1 × 10^5 cells/ml) were lysed using SDS-free lysis and the lysate made up to 1 mL. Disulphide bounds were disrupted by reduction and alkylation. DTT was added to sample with a final concentration of 10 mM and incubated at 37 °C for 30 min. Iodoacetamide was then added to sample with a final concentration of 55 mM and incubated in the dark at room temperature for 30 min. The protein mixture was then enriched through a solid phase (SPE) C18 column. The C18 column was activated with 1 ml methanol at a rate of 3 drops/second, followed by 1 ml 0.1% formic acid to condition the column. The diluted protein mixture was loaded onto the column at 1 drop/sec, the column was washed with 3 ml 0.1% formic acid and enriched proteins were eluted with 800 μl 75% acetonitrile at a rate of 0.5 drops per second and the eluate was freeze-dried. The freeze-dried proteins were redissolved in 20 μl 50 mM ammonium bicarbonate and quantified according to the manufacturer’s instructions (Pierce Quantitative Fluorometric Peptide Assay cat# 23290). A small aliquot was removed for PAGE QC analysis on a 12% polyacrylamide gel. The remainder of the protein samples were digested with trypsin at a ratio of 1:20 for enzyme and proteins (w/w). The mixture was incubated for 14–16 h at 37 °C.
For DDA (Data Dependent Acquisition) library construction (Nano-LC-MS/MS) the dried peptide samples were reconstituted with mobile phase A (2% ACN, 0.1% FA), centrifuged at 20,000 g for 10 minutes, and the supernatant was taken for injection. Separation was carried out by a Thermo UltiMate 3000 UHPLC liquid chromatograph. […] The main parameters were set: ion source voltage was set to 1.9 kV, MS1 mass spectrometer scanning range was 350 ~ 1650 m/z; resolution was set to 120,000; maximal injection time (MIT) 90 ms; MS/MS collision type HCD, collision energy NCE 30; MS/MS resolution 30,000, MIT was auto mode, dynamic exclusion duration 120 seconds. The start m/z for MS/MS was fixed to auto mode. Precursor for MS/MS scan satisfied: charge range 2+ to 6 + , top 30 precursors with intensity over 2E4. AGC was: MS 300%, MS/MS 100%.
Peptides separated by liquid phase chromatography were ionized by a nanoESI source and then passed to an Orbitrap Exploris480 (Thermo Fisher Scientific, San Jose,CA) to acquire mass spectrometry data in DIA mode. The main parameters were set: ion source voltage was set to 1.9 kV, MS1 mass spectrometer scanning range was 400 ~ 1250 m/z; resolution was set to 120,000; maximal injection time (MIT) 90 ms; 400 ~ 1250 m/z was equally divided to 50 continuous windows MS/MS scan. MS/MS collision type HCD, collision energy NCE 30; MIT was auto mode. Fragment ions were scanned in Orbitrap, MS/MS resolution 30,000. AGC was: MS 300%, MS/MS 1000%.
DIA data was analysed using the iRT peptides for retention time calibration. Then, based on the target-decoy model applicable to SWATH-MS, false positive control was performed with FDR 1% to obtain significant quantitative results. MSstats was used for the statistical evaluation of significant differences in proteins or peptides from different samples. The core algorithm is linear mixed effect model that pre-processes the data according to the predefined comparison group, and then performed the significance test based on the model. Thereafter, differential protein screening was performed based on the fold change >2 and p-value < 0.05 as the criterion for the significant difference.

For another assay, the system named is MCL1 protein expression. Kind of assay: Immunoblot of MCL1 in eIF4E-dTAG clones and rescue models. In kind it is cell-based, human. The following applies: eIF4E-dTAG clones. As for the experimental part: One sample t and Wilcoxon tests (two-sided), using 100% as hypothetical control value, were performed and compared with the control in each cell line. b, c Real-time cell growth measurements monitored every 4 h over a 6-day period. Cell confluency (%) was calculated using Incucyte Zoom software and (mean ± SEM n = 3 biological replicates). Ordinary one-way ANOVA with Tukey multiple comparisons test compared treatment with the control in each cell line. […] Vinculin was used as loading control. H1299 (PAR) cell lines were treated with 1 μM dTAG^V-1 only as qualitative control. Vinculin was used as loading control. […] Significant p-values (< 0.05) are shown on the plots and the source data is located in the Source Data file.
After seeding overnight in 6 well plates (Corning, cat#353046), cells were treated with compounds for the indicated times and concentration, harvested and the cell pellet lysed on ice in cell lysis buffer (Cell Signaling, cat#9803), supplemented with 1x Halt^TM protease inhibitor cocktail (Fisher Scientific, cat#78429) and cOmplete^TM protease inhibitor cocktail (Sigma-Aldrich, cat#11836153001) for 1 hr. Protein was quantified using BCA protein kit (Fisher Scientific, cat#23225). Western blot was performed using NuPAGE^TM 4–12% Bis-Tris gels (Fisher Scientific, cat#NP0336BOX) and transferred using the Invitrogen iBLOT^TM gel transfer device system (Fisher Scientific, Cat#IB21001). […] All primary antibodies were diluted (1:1000) in 5% BSA (Sigma-Aldrich, cat#A7906) in 1x TBS and 0.1% Tween 20 (Sigma-Aldrich, cat#P1379), except for vinculin (1:2000) that was diluted in casein blocker (Sigma-Aldrich, cat#1610782). This was followed by incubation with the secondary HRP-conjugated antibodies (anti-mouse HRP, Bio-rad, Watford, UK, cat#1705047; anti-rabbit HRP, Sigma-Aldrich, cat#NA934) in casein for 1 h at RT. ECL HRP substrate (SuperSignalTM West Pico, Fisher Scientific, cat#34578) was then added to detect protein targets by chemiluminescence and images acquired using the ChemiDocTM system (Bio-Rad). Quantitative densitometry analysis of protein bands was performed using Image J v1.53 software.
A general note: In western blotting, separated proteins are transferred to a membrane and probed.

Take `COc1ccc(-c2ccc3c(N4CCOC[C@@H]4C)nc(N4CCOC[C@@H]4C)nc3n2)cc1CO` [AZD8055, reference compound]: in the assay on c-Myc-activity (1μM), the “c-Myc, Average” value amounted to 19.11 and the “CMV, Average” value amounted to 86.61. Moreover, in the assay on c-Myc-activity (10μM), the “c-Myc, Average” value turned out to be 13.82 and the “CMV, Average” value is recorded as 130.75. In addition, the “activity in c-Myc reporter assay” value in the assay with c-Myc-activity (SW620 cells, 1 or 10 µM, 24 hr) is given as “clearly inhibited activity”.
Regarding `C[C@@H]1C[C@@H]([C@H](O)CC2CC(=O)NC(=O)C2)C(=O)[C@@H](C)C1` [CHX, cycloheximide, reference compound], the “protein synthesis reporter signal (cap-dependent luciferase / IRES luciferase), replicate values” in assay [1] is 0.353 and 0.410 and 0.685 and 0.311 and 0.478 and 0.325.
The Kd is the constant that tells how readily two partners part at equilibrium. For the compound `Oc1cccc(-c2ccccc2)c1` [Compound 1, [1,1'-biphenyl]-3-ol], in assay [2], the Kd was found to be 400 µM and the “LE (ligand efficiency)” value is listed as 0.36 (kcal/mol)/heavy atom.
The corresponding values for `O=C(O)C1(c2ccc(Cl)cc2)CCCC1` [Compound 2, 1-(4-chlorophenyl)cyclopentane-1-carboxylic acid] are 7400 µM and 0.19 (kcal/mol)/heavy atom.
With `CC(O)c1ccc(-c2ccccc2F)cc1` (stereo not drawn) [Compound 3, 1-{2'-fluoro-[1,1'-biphenyl]-4-yl}ethan-1-ol], in assay [2], binding was put at a Kd of 20 µM and the “LE (ligand efficiency)” value is reported as 0.4 (kcal/mol)/heavy atom. The improvement in affinity in assay [2] (compound 3 versus compound 1) is given as 20 fold.
Consider `CC[C@H](C(=O)N1CCCC[C@H]1C(=O)O[C@H](CCc1ccc(OC)c(OC)c1)c1ccccc1OCC(=O)NCCCCCCC(=O)N[C@H](C(=O)N1C[C@H](O)C[C@H]1C(=O)N[C@@H](C)c1ccc(-c2scnc2C)cc1)C(C)(C)C)c1cc(OC)c(OC)c(OC)c1` [dTAG-v1], for which the “Normalised signal intensity, A2M” value in assay [3] (H1299 C2-2 dTAG clone) worked out at 17.256; in assay [3] (H1299 C3-1 dTAG clone), 17.317; in assay [3] (H1299 N2-1 dTAG clone) it was 17.029; in assay [3] (H1299 N3-2 dTAG clone), 16.465. For the same compound, the “Normalised signal intensity, AAAS (first entry, r5)” value in assay [3] (H1299 C2-2 dTAG clone) was found to be 16.230; in assay [3] (H1299 C3-1 dTAG clone) it was 15.976; in assay [3] (H1299 N2-1 dTAG clone) it was 15.914; in assay [3] (H1299 N3-2 dTAG clone), 15.682. In addition, the “Normalised signal intensity, AAAS (second entry, r6)” value turned out to be 19.251 in assay [3] (H1299 C2-2 dTAG clone), 18.995 in assay [3] (H1299 C3-1 dTAG clone), 19.083 in assay [3] (H1299 N2-1 dTAG clone) and 18.655 in assay [3] (H1299 N3-2 dTAG clone). Also, the “Normalised signal intensity, AACS” value was determined as 16.229 in assay [3] (H1299 C2-2 dTAG clone), 16.150 in assay [3] (H1299 C3-1 dTAG clone), 15.496 in assay [3] (H1299 N2-1 dTAG clone) and 16.041 in assay [3] (H1299 N3-2 dTAG clone).
On to `CC[C@H](C(=O)N1CCCC[C@H]1C(=O)O[C@H](CCc1ccc(OC)c(OC)c1)c1ccccc1OCC(=O)NCCCCCCC(=O)N[C@H](C(=O)N1C[C@@H](O)C[C@@H]1C(=O)N[C@@H](C)c1ccc(-c2scnc2C)cc1)C(C)(C)C)c1cc(OC)c(OC)c(OC)c1` [neg-dTAG^V-1, reference compound], for which, in the assay with MCL1 protein expression, the “MCL1 protein after treatment” value is listed as “Loss of MCL1 protein was not observed”.
